Structures are written as SMILES.

One assay concerns the target T1, HCK (Homo sapiens, UniProt P08631).
T1 construct: endogenous in cells
The experiment in a line: Kinobeads competition binding: HCK. Conditions: target HCK. The text has this: Supplement 41589_2023_1459_MOESM4_ESM.xlsx, sheet "CATDS matrix" | column: HCK

Another assay deals with MAP4K3. The experiment in a line: Kinobeads competition binding: MAP4K3. Also noted: species or system human. The conditions noted are these: target MAP4K3.
For the next assay, the target named is T2, PIM1 (Homo sapiens, UniProt P11309).
T2 construct: a mixture of lysates from five cancer cell lines; endogenous in cells
Put plainly: Kinobeads competition binding: PIM1. The conditions noted are these: target PIM1.

Another assay deals with PI4KB. Put plainly: Kinobeads competition binding: PI4KB.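 Note: selectivity score: engagement of this protein divided by summed engagement of all targets.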 Also noted: species or system human. The conditions noted are these: target PI4KB.
The next assay relates to FECH. The experiment in a line: Kinobeads competition binding: FECH. Also noted: species or system human. The conditions noted are these: target FECH.
The next assay concerns LIMK2. The experiment in a line: Kinobeads competition binding: LIMK2. Conditions: target LIMK2. Also noted: species or system human.
For the next assay, the system named is CDK16. The experiment in a line: Kinobeads competition binding: CDK16. Also noted: species or system human. The conditions noted are these: target CDK16.
The target in a further assay is T3, PIK3C3 (Homo sapiens, UniProt Q8NEB9).
T3 construct: a mixture of lysates from five cancer cell lines; endogenous in cells
The experiment in a line: Kinobeads competition binding: PIK3C3. The conditions noted are these: target PIK3C3.

Another assay addresses T4, PKN1 (Homo sapiens, UniProt Q16512).
T4 construct: a mixture of lysates from five cancer cell lines; endogenous in cells
Put plainly: Kinobeads competition binding: PKN1.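 Note: share of total target engagement due to this protein at one drug concentration.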 The conditions noted are these: target PKN1. The text has this: Supplement 41589_2023_1459_MOESM4_ESM.xlsx, sheet "CATDS matrix" | column: PKN1

For a further assay, the target named is T5, NQO1 (Homo sapiens, UniProt P15559).
T5 construct: endogenous in cells
The experiment in a line: Kinobeads competition binding: NQO1. The conditions noted are these: target NQO1. The text has this:
Supplement 41589_2023_1459_MOESM4_ESM.xlsx, sheet "CATDS matrix" | column: NQO1

In a further assay the target is T6, CAMK2G (Homo sapiens, UniProt Q13555).
T6 construct: endogenous in cells
Put plainly: Kinobeads competition binding: CAMK2G. Conditions: target CAMK2G.

For the next assay, the system named is ATR. The experiment in a line: Kinobeads competition binding: ATR. Also noted: species or system human. The conditions noted are these: target ATR.
In a further assay the test system is MAP3K12. Put plainly: Kinobeads competition binding: MAP3K12. Conditions: target MAP3K12. Also noted: species or system human.
Another assay deals with MAP4K2. The experiment in a line: Kinobeads competition binding: MAP4K2. Also noted: species or system human. Conditions: target MAP4K2.
A further assay relates to IRAK1. The experiment in a line: Kinobeads competition binding: IRAK1. Also noted: species or system human. The conditions noted are these: target IRAK1.
A further assay concerns COX5A. Put plainly: Kinobeads competition binding: COX5A.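 Note: share of total target engagement due to this protein at one drug concentration.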 Also noted: species or system human. The conditions noted are these: target COX5A.
For the next assay, the system named is NAT10. Put plainly: Kinobeads competition binding: NAT10. Also noted: species or system human. Conditions: target NAT10.
The test system of a further assay is CDK17. The experiment in a line: Kinobeads competition binding: CDK17. Also noted: species or system human. Conditions: target CDK17.
A further assay addresses T7, EPHB4 (Homo sapiens, UniProt P54760).
T7 construct: endogenous in cells
T7 sequence (P54760 16-987): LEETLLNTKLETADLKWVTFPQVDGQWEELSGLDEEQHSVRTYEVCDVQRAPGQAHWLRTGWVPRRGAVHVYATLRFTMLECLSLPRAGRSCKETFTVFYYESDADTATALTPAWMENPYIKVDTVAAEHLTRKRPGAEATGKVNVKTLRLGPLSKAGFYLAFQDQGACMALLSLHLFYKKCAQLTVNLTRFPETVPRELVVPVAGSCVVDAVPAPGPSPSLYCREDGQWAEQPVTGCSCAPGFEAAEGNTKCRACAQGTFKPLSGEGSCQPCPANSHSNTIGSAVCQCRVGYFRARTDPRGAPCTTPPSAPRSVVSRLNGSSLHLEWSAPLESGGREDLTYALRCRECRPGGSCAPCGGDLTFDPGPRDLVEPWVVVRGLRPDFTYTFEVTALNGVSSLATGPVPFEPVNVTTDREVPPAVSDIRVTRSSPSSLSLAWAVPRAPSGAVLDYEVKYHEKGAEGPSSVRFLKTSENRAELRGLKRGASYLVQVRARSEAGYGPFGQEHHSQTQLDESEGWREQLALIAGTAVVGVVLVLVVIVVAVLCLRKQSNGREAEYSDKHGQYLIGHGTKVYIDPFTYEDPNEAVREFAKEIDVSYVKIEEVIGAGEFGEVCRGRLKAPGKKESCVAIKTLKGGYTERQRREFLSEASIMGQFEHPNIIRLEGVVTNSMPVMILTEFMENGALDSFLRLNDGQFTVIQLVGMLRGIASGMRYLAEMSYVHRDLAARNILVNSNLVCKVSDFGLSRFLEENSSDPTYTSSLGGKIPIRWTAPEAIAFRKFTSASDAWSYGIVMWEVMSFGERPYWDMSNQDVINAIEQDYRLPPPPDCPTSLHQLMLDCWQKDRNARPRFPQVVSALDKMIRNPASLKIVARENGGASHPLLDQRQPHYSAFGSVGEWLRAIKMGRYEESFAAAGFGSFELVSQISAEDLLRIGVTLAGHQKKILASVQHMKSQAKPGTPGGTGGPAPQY
The experiment in a line: Kinobeads competition binding: EPHB4. Conditions: target EPHB4.

In another assay the target is T8, AKT1 (Homo sapiens, UniProt P31749).
T8 construct: endogenous in cells
Put plainly: Kinobeads competition binding: AKT1. The conditions noted are these: target AKT1. The text has this:
Supplement 41589_2023_1459_MOESM4_ESM.xlsx, sheet "CATDS matrix" | column: AKT1

A further assay has as its system MDN1. Put plainly: Kinobeads competition binding: MDN1. Also noted: species or system human. The conditions noted are these: target MDN1.
The target of a further assay is T9, CSNK1G3 (Homo sapiens, UniProt Q9Y6M4).
T9 construct: endogenous in cells
Put plainly: Kinobeads competition binding: CSNK1G3.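 Note: share of total target engagement due to this protein at one drug concentration.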 Conditions: target CSNK1G3. The text has this:
Supplement 41589_2023_1459_MOESM4_ESM.xlsx, sheet "CATDS matrix" | column: CSNK1G3

Consider `Nc1ncnc2[nH]c(-c3ccccc3)nc12` [AH5015_KCGS], for which the CATDS on HCK, in the assay with MAP4K3, at PIM1, in the assay with PI4KB, with FECH and in the assay with LIMK2 was 0 in each case. The CATDS with CDK16, on PIK3C3, at PKN1, on NQO1, on CAMK2G and in the assay with ATR was 0 in each case. Further, the CATDS with MAP3K12, in the assay on MAP4K2, with IRAK1, in the assay with COX5A, with NAT10 and in the assay with CDK17 was 0 each time. Moreover, the CATDS is recorded as 0.03489 on EPHB4, 0 at AKT1, 0 in the assay with MDN1 and 0 on CSNK1G3.
On to `CCN1CCN(Cc2ccc(Nc3ncc(F)c(-c4cc(F)c5nc(C)n(C(C)C)c5c4)n3)nc2)CC1` [Abemaciclib], for which the CATDS at HCK came out at 0; in the assay on MAP4K3 it was 0; at PIM1, 0.03255; with PI4KB, 0; in the assay with FECH, 0; in the assay on LIMK2, 0. In addition, the CATDS in the assay with CDK16 was found to be 0.02651; on PIK3C3, 0; at PKN1 it was 0; on NQO1 it was 0; at CAMK2G, 0.09397; with ATR, 0. In addition, the CATDS came out at 0 in the assay with MAP3K12; 0 in the assay with MAP4K2; 0.02986 in the assay on IRAK1; 0 with COX5A; 0 in the assay with NAT10; 0.02553 with CDK17. The CATDS on EPHB4, on AKT1, with MDN1 and on CSNK1G3 was 0 each time.
As for `CCc1cc2c(cc1N1CCC(N3CCOCC3)CC1)C(C)(C)c1[nH]c3cc(C#N)ccc3c1C2=O` [Alectinib], the CATDS at HCK, with MAP4K3, at PIM1, with PI4KB, with FECH and in the assay on LIMK2 was 0 throughout. In addition, the CATDS in the assay with CDK16, at PIK3C3, at PKN1, at NQO1, on CAMK2G and in the assay with ATR was 0 throughout. Besides, the CATDS in the assay on MAP3K12, in the assay with MAP4K2, in the assay on IRAK1, in the assay with COX5A, in the assay with NAT10 and in the assay on CDK17 was 0 throughout. Moreover, the CATDS on EPHB4, on AKT1, in the assay on MDN1 and at CSNK1G3 was 0 each time.
Turning to `N#CC1(c2ccc(NC(=O)c3cccnc3NCc3ccncc3)cc2)CCCC1` [Apatinib], the CATDS on HCK, in the assay with MAP4K3, on PIM1, with PI4KB, in the assay on FECH and in the assay with LIMK2 was 0 each time. Besides, the CATDS in the assay on CDK16, on PIK3C3, on PKN1, on NQO1, at CAMK2G and in the assay with ATR was 0 each time. The CATDS in the assay on MAP3K12, in the assay with MAP4K2, in the assay with IRAK1, in the assay with COX5A, in the assay with NAT10 and in the assay with CDK17 was 0 in each case. The CATDS at EPHB4, at AKT1, in the assay on MDN1 and at CSNK1G3 was 0 throughout.
